{
  "source": "patent US20150297738A1",
  "about": "“CONJUGATES COMPRISING HYDROXYALKYL STARCH AND A CYTOTOXIC AGENT AND PROCESS FOR THEIR PREPARATION” (Fresenius Kabi Deutschland GmbH, priority 2010, published 2015)",
  "assay_type_in_all_cases": "in vivo, NMRI:nu/nu mice",
  "key": {"[1]": {"experiment": "Body weight change as sign of toxicity in tumor-bearing mice (docetaxel/paclitaxel studies; MT-3, PC3, A549 models)", "procedure": "(§1) Tumor growth inhibition was used as therapeutic parameter. Additionally, body weight change was determined as signs for toxicity (particularly, potential hematological or gastrointestinal side effects).\nIndividual body weights of mice were determined twice weekly and mean body weight per group was related to the initial value in percent (body weight change, BWC), see tables in appendix.\nDescriptive statistics was performed on the data of body weight and tumor volume. […] Statistical evaluation was performed with the U-test of Mann and Whitney with a significance level of p≦0.05, using the Windows program […] 6.\nTables 18 to 24 summarize the results for the tested Docetaxel conjugates and the reference compound Taxotere®. […] The loss of body weight is known to be an indicator of gastro-intestinal and hepatotoxicity of the tested compound.\nThe tables show, inter alia, i) the tested compounds, ii) the tumor volume in mice at the day the control group was sacrificed (in cm^3), iii) the lowest value of the relative tumor volume vs. the relative tumor volume of the control group (RTV T/C) together with the day, when this optimum was reached, iv) the maximum body weight loss in mice together with the day, when this minimum was reached. The loss of body weight is known to be an indicator of gastro-intestinal and hepatotoxicity of the tested compound."}, "[2]": {"system": "human breast carcinoma MT-3", "experiment": "Tumor growth inhibition (RTV, T/C) in the MT-3 xenograft mouse tumor model", "settings": "for Tumor volume cm^3/d31: day 31; for Tumor volume cm^3/d27: day 27"}, "[3]": {"experiment": "Body weight change as sign of toxicity in mice bearing ASPC-1 xenografts (gemcitabine study)", "settings": "Table 27, ASPC-1; 60 mg/kg/inj., treatment d 7, 15, 21; day in parentheses", "procedure": "as §1\nIndividual body weights of mice were determined twice weekly and mean body weight per group was related to the initial value in percent (body weight change, BWC).\nDescriptive statistics were performed on the data of body weight and tumor volume. […] Statistical evaluation was performed with the U-test of Mann and Whitney with a significance level of p≦0.05, using the Windows program […] 6."}, "[4]": {"system": "human pancreas carcinoma ASPC-1", "experiment": "Tumor growth inhibition (RTV, T/C) in the ASPC-1 s.c. xenotransplantation model", "settings": "Table 27, ASPC-1; day 27; 60 mg/kg/inj., treatment d 7, 15, 21", "excerpt": "At treatment initiation the ears of the animals were marked and each cage was labeled with the cage number, study number and animal number per cage.\nThe human pancreas carcinoma ASPC-1 was used as s.c. xenotransplantation model in immunodeficient female NMRI:nu/nu mice.\nThey were thawed, expanded in vitro and transplanted as cell suspension subcutaneously (s.c.) in female NMRI:nu/nu mice. The tumor line ASPC-1 is used for testing new anticancer drugs or novel therapeutic strategies. It was therefore selected for this study.\nFor experimental use 10^7 tumor cells/mouse from the in vitro passage were transplanted s.c. into the flank of each of 10 mice/group at day 0.\nAt palpable tumor size (30-100 mm^3) treatment started. The application volume was 0.2 ml/20 g mouse body weight. The test compounds, the vehicle controls and the reference compounds were all given intravenously (i.v.).\nas §1\nTumor diameters were measured twice weekly with a caliper. Tumor volumes were calculated according to V=(length×(width)^2)/2. For calculation of the relative tumor volume (RTV) the tumor volumes at each measurement day were related to the day of first treatment. […]"}, "[5]": {"system": "human lung carcinoma A549", "experiment": "Tumor growth inhibition (RTV, T/C) in the A549 xenograft mouse tumor model", "settings": "Table 21, conjugates 1 × 75 mg/kg d8, Docetaxel 5 mg/kg d8-12, i.v.", "procedure": "Each measurement was carried out with a group of 8 mice. The conjugates CDc1, CDc4 and CDc5 were administered once at a dosage of 75 mg/kg body weight on day 8. Taxotere® was administered 5 times at a dosage of 5 mg/kg body weight at days 8 to 12. Median values are given.\n(§2) Adult male and female immunodeficient mice NMRI:nu/nu mice (TACONIC Europe, Lille Skensved, Denmark) were used throughout the study.\n(§3) The animals were randomly assigned to various experimental groups with 6 to 8 mice each. At treatment initiation the ears of the animals were marked and each cage was labeled with the cage number, study number and animal number per cage.\n(§4) The tumor lines A549, PC-3 and MT3 are lines which are commonly used for testing new anticancer drugs or novel therapeutic therapies. A549, PC-3 and MT3 xenografts are growing relatively fast and uniform.\n(§5) Tumor cells were thawed and grown under in vitro conditions. […]\nas §1\n(§6) Tumor diameters were measured twice weekly with a caliper. Tumor volumes were calculated according to V=(length×(width)^2)/2. […] At each measurement day the median and mean tumor volumes per group and also the treated to control (T/C) values in percent were calculated. […]"}, "[6]": {"system": "human prostate carcinoma PC3", "experiment": "Tumor growth inhibition (RTV, T/C) in the PC3 xenograft mouse tumor model", "settings": "Table 20; conjugates 1 × 75 mg/kg d6, Docetaxel 5 mg/kg d6-10; i.v.", "procedure": "Each measurement was carried out with a group of 8 mice. The conjugates CDc1, CDc4 and CDc5 were administered once at a dosage of 75 mg/kg body weight on day 6. Taxotere® was administered 5 times at a dosage of 5 mg/kg body weight at days 6 to 10. Median values are given.\nas §2, §3, §4, §5, §1, §6"}, "[7]": {"settings": "Table 25, MT-3, 12.5 mg/kg/inj. d 7-9, 10 mg/kg/inj. d 10-11"}, "[8]": {"settings": "Table 23, conjugates 1 × 75 mg/kg d7, Docetaxel 5 mg/kg d7-11, i.v."}},
  "note": "Marks after values point to notes of the source that are not given here.",
  "data": [
    {"compound": "CC(=O)O[C@H]1C(=O)[C@@]2(C)[C@H]([C@H](OC(=O)c3ccccc3)[C@]3(O)C[C@H](OC(=O)[C@H](O)[C@@H](NC(=O)c4ccccc4)c4ccccc4)C(C)=C1C3(C)C)[C@]1(OC(C)=O)CO[C@@H]1C[C@@H]2O", "note": "[Paclitaxel, paclitaxel]", "values": [
      {"measurement": "BWC [%] (at day)", "setting": "[1]; Table 25, MT-3 model, 12.5 mg/kg/inj. d 7-9, 10 mg/kg/inj. d 10-11", "value": "−15", "unit": "%"},
      {"measurement": "Toxic deaths (at day)", "setting": "[1]; Table 25, MT-3 model, 12.5 mg/kg/inj. d 7-9, 10 mg/kg/inj. d 10-11, number of mice", "value": 1},
      {"measurement": "BWC [%] (at day)", "setting": "[1]; Table 26, MT-3 model, 10 mg/kg/inj., treatment d 10-14", "value": "−18", "unit": "%"},
      {"measurement": "Toxic deaths (at day)", "setting": "[1]; Table 26, MT-3 model, 10 mg/kg/inj., treatment d 10-14, number of mice", "value": 0},
      {"measurement": "RTV T/C (%) Optimum (at day)", "setting": "[2]; [7]", "value": 21.5, "unit": "%"},
      {"measurement": "Tumor volume cm^3/d31", "setting": "[2]; [7]", "value": "0.41 +/− 0.21* cm^3"},
      {"measurement": "Tumor volume cm^3/d31", "setting": "[2]; Table 26, MT-3, 10 mg/kg/inj., treatment d 10-14", "value": "0.673 +/− 0.226* cm^3"}
    ]},
    {"compound": "Nc1ccn([C@@H]2O[C@H](CO)[C@@H](O)C2(F)F)c(=O)n1", "note": "[Gemcitabine, gemcitabine]", "values": [
      {"measurement": "[%] (at day) [head truncated; BWC]", "setting": "[3]", "value": "−2.4 (9) %"},
      {"measurement": "d27 [head truncated; T/C in percent]", "setting": "[4]", "value": 53.3, "unit": "%"}
    ]},
    {"compound": "CC(=O)O[C@@]12CO[C@@H]1C[C@H](O)[C@@]1(C)C(=O)[C@H](O)C3=C(C)[C@@H](OC(=O)[C@H](O)[C@@H](NC(=O)OC(C)(C)C)c4ccccc4)C[C@@](O)([C@@H](OC(=O)c4ccccc4)[C@H]21)C3(C)C", "note": "[Docetaxel, docetaxel]", "values": [
      {"measurement": "RTV T/C (%) Optimum (at day)", "setting": "[5]", "value": 32.3, "unit": "%"},
      {"measurement": "Tumor volume cm^3/d42", "setting": "[5]; day 42", "value": "0.334 +/− 0.207* cm^3"},
      {"measurement": "Toxic deaths (at day)", "setting": "[1]; Table 18, MT-3 model, conjugates 1 × 100 mg/kg d7, Docetaxel 10 mg/kg d7, 9, 11, i.v., 8 mice per group", "value": 4},
      {"measurement": "Toxic death (at day)", "setting": "[1]; Table 23, MT-3 model, conjugates 1 × 75 mg/kg d7, Docetaxel 5 mg/kg d7-11, i.v.", "value": 0},
      {"measurement": "BWC [%] (at day)", "setting": "[1]; mouse, in vivo, 5 mg/kg", "value": "−11", "unit": "%"},
      {"measurement": "Tumor volume cm^3/d31", "setting": "[2]; Table 18, conjugates 1 × 100 mg/kg d7, Docetaxel 10 mg/kg d7, 9, 11, i.v.", "value": "0.18 +/− 0.10 cm^3"},
      {"measurement": "RTV T/C (%) Optimum (at day)", "setting": "[2]; Table 18, lowest RTV vs control, conjugates 1 × 100 mg/kg d7, Docetaxel 10 mg/kg d7, 9, 11, i.v.", "value": 10.7, "unit": "%"},
      {"measurement": "RTV T/C (%) Optimum (at day)", "setting": "[2]; Table 19, conjugates 1 × 75 mg/kg d11, Docetaxel 5 mg/kg d11-15, i.v.", "value": 54.0, "unit": "%"},
      {"measurement": "Tumor volume cm^3/d26", "setting": "[2]; Table 19, day 26, conjugates 1 × 75 mg/kg d11, Docetaxel 5 mg/kg d11-15, i.v.", "value": "0.815 +/− 0.383* cm^3"},
      {"measurement": "RTV T/C (%) Optimum (at day)", "setting": "[2]; Table 22, conjugates 1 × 75 mg/kg d11, Docetaxel 5 mg/kg d11-15, i.v.", "value": 31.8, "unit": "%"},
      {"measurement": "Tumor volume cm3/d25", "setting": "[2]; Table 22, day 25, conjugates 1 × 75 mg/kg d11, Docetaxel 5 mg/kg d11-15, i.v.", "value": "0.517 +/− 0.202* cm3"},
      {"measurement": "RTV T/C (%) Optimum (at day)", "setting": "[2]; [8]", "value": 43.0, "unit": "%"},
      {"measurement": "Tumor volume cm^3/d27", "setting": "[2]; [8]", "value": "0.873 +/− 0.390* cm^3"},
      {"measurement": "RTV T/C (%) Optimum (at day)", "setting": "[2]; Table 24, MT-3, 5 mg/kg/inj., treatment d 8-12, day of optimum in parentheses below", "value": 23.1, "unit": "%"},
      {"measurement": "Tumor volume cm^3/d27", "setting": "[2]; Table 24, MT-3, 5 mg/kg/inj., treatment d 8-12", "value": "0.542 +/− 0.353* cm^3"},
      {"measurement": "RTV T/C (%) Optimum (at day)", "setting": "[6]", "value": 2.6, "unit": "%"}
    ]}
  ]
}
